Results: the NIST ThermoML archive (doi:10.1021/je700294p)

Columns and labels:
[1] = excess molar enthalpy (molar enthalpy of mixing); xn = mol fraction of the nth substance listed; conditions: 101 kPa, Liquid
[2] = xn = mol fraction of the nth substance listed; conditions: 101 kPa, Liquid
[3] = refractive index (Na D-line) (dimensionless); conditions: 101.33 kPa, Liquid, Standard Abbe refractometry
[4] = 101.33 kPa, Liquid, Vibrating tube method

CCCC[n+]1cccc(C)c1.F[B-](F)(F)F [1-butyl-3-methylpyridinium tetrafluoroborate] + CO
Conditions	excess molar enthalpy [kcal/mol]	mass density [kg/m3]
[1], 298.15 K, x1 = 0.0057	0.0261	–
[1], 298.15 K, x1 = 0.0149	0.0545	–
[1], 298.15 K, x1 = 0.0279	0.0923	–
[1], 298.15 K, x1 = 0.044	0.13	–
[1], 298.15 K, x1 = 0.0635	0.167	–
[1], 298.15 K, x1 = 0.0842	0.202	–
[1], 298.15 K, x1 = 0.1071	0.237	–
[1], 298.15 K, x1 = 0.1312	0.271	–
[1], 298.15 K, x1 = 0.1585	0.308	–
[1], 298.15 K, x1 = 0.1851	0.332	–
[1], 298.15 K, x1 = 0.2119	0.359	–
[1], 298.15 K, x1 = 0.2357	0.373	–
[1], 298.15 K, x1 = 0.2672	0.382	–
[1], 298.15 K, x1 = 0.3069	0.386	–
[1], 298.15 K, x1 = 0.3541	0.383	–
[1], 298.15 K, x1 = 0.41	0.377	–
[1], 298.15 K, x1 = 0.4816	0.361	–
[1], 298.15 K, x1 = 0.5621	0.33	–
[1], 298.15 K, x1 = 0.7167	0.257	–
[1], 298.15 K, x1 = 0.7441	0.227	–
[1], 298.15 K, x1 = 0.8438	0.158	–
[1], 298.15 K, x1 = 0.9196	0.0942	–
[1], 298.15 K, x1 = 0.9707	0.0416	–
[1], 318.15 K, x1 = 0.0159	0.0588	–
[1], 318.15 K, x1 = 0.0352	0.121	–
[1], 318.15 K, x1 = 0.0581	0.173	–
[1], 318.15 K, x1 = 0.0823	0.224	–
[1], 318.15 K, x1 = 0.1098	0.281	–
[1], 318.15 K, x1 = 0.1382	0.336	–
[1], 318.15 K, x1 = 0.1674	0.39	–
[1], 318.15 K, x1 = 0.197	0.43	–
[1], 318.15 K, x1 = 0.2147	0.462	–
[1], 318.15 K, x1 = 0.2317	0.488	–
[1], 318.15 K, x1 = 0.2641	0.512	–
[1], 318.15 K, x1 = 0.2984	0.533	–
[1], 318.15 K, x1 = 0.3343	0.544	–
[1], 318.15 K, x1 = 0.3787	0.548	–
[1], 318.15 K, x1 = 0.4391	0.538	–
[1], 318.15 K, x1 = 0.5504	0.477	–
[1], 318.15 K, x1 = 0.6911	0.349	–
[1], 318.15 K, x1 = 0.8526	0.191	–
[2], 298.15 K, x1 = 0.0493	–	873.4
[2], 298.15 K, x1 = 0.0629	–	893.1
[2], 298.15 K, x1 = 0.0986	–	934.4
[2], 298.15 K, x1 = 0.1499	–	979.6
[2], 298.15 K, x1 = 0.2007	–	1014.7
[2], 298.15 K, x1 = 0.2956	–	1061.6
[2], 298.15 K, x1 = 0.4052	–	1098.2
[2], 298.15 K, x1 = 0.5128	–	1122.8
[2], 298.15 K, x1 = 0.6009	–	1138.7
[2], 298.15 K, x1 = 0.6913	–	1151.7
[2], 298.15 K, x1 = 0.7611	–	1159.7
[2], 318.15 K, x1 = 0.0557	–	865.7
[2], 318.15 K, x1 = 0.1052	–	924.3
[2], 318.15 K, x1 = 0.1493	–	964
[2], 318.15 K, x1 = 0.2479	–	1025.1
[2], 318.15 K, x1 = 0.3016	–	1048.4
[2], 318.15 K, x1 = 0.3944	–	1079.5
[2], 318.15 K, x1 = 0.497	–	1104.7
[2], 318.15 K, x1 = 0.5868	–	1121.6
[2], 318.15 K, x1 = 0.7088	–	1139.8
[2], 318.15 K, x1 = 0.855	–	1156.2
[2], 318.15 K, x1 = 0.9465	–	1164.4

CCCC[n+]1cccc(C)c1.F[B-](F)(F)F [1-butyl-3-methylpyridinium tetrafluoroborate] + O
Conditions	excess molar enthalpy [kcal/mol]	mass density [kg/m3]
[1], 298.15 K, x1 = 0.006	0.0186	–
[1], 298.15 K, x1 = 0.0137	0.0399	–
[1], 298.15 K, x1 = 0.0226	0.0636	–
[1], 298.15 K, x1 = 0.0328	0.0894	–
[1], 298.15 K, x1 = 0.0448	0.117	–
[1], 298.15 K, x1 = 0.058	0.146	–
[1], 298.15 K, x1 = 0.0724	0.175	–
[1], 298.15 K, x1 = 0.0876	0.205	–
[1], 298.15 K, x1 = 0.1038	0.235	–
[1], 298.15 K, x1 = 0.1204	0.264	–
[1], 298.15 K, x1 = 0.1234	0.268	–
[1], 298.15 K, x1 = 0.1415	0.298	–
[1], 298.15 K, x1 = 0.1713	0.326	–
[1], 298.15 K, x1 = 0.1993	0.35	–
[1], 298.15 K, x1 = 0.2307	0.372	–
[1], 298.15 K, x1 = 0.2676	0.387	–
[1], 298.15 K, x1 = 0.3091	0.391	–
[1], 298.15 K, x1 = 0.3573	0.383	–
[1], 298.15 K, x1 = 0.4051	0.366	–
[1], 298.15 K, x1 = 0.4511	0.349	–
[1], 298.15 K, x1 = 0.5139	0.318	–
[1], 298.15 K, x1 = 0.6139	0.261	–
[1], 298.15 K, x1 = 0.7899	0.151	–
[1], 318.15 K, x1 = 0.0058	0.0227	–
[1], 318.15 K, x1 = 0.0136	0.0519	–
[1], 318.15 K, x1 = 0.0231	0.0841	–
[1], 318.15 K, x1 = 0.0339	0.116	–
[1], 318.15 K, x1 = 0.0459	0.149	–
[1], 318.15 K, x1 = 0.0605	0.184	–
[1], 318.15 K, x1 = 0.0774	0.222	–
[1], 318.15 K, x1 = 0.0961	0.26	–
[1], 318.15 K, x1 = 0.1167	0.299	–
[1], 318.15 K, x1 = 0.1225	0.306	–
[1], 318.15 K, x1 = 0.1348	0.329	–
[1], 318.15 K, x1 = 0.1378	0.334	–
[1], 318.15 K, x1 = 0.1574	0.369	–
[1], 318.15 K, x1 = 0.1845	0.402	–
[1], 318.15 K, x1 = 0.2023	0.435	–
[1], 318.15 K, x1 = 0.2358	0.464	–
[1], 318.15 K, x1 = 0.2685	0.488	–
[1], 318.15 K, x1 = 0.3026	0.502	–
[1], 318.15 K, x1 = 0.3403	0.513	–
[1], 318.15 K, x1 = 0.3889	0.512	–
[1], 318.15 K, x1 = 0.4492	0.493	–
[1], 318.15 K, x1 = 0.5301	0.453	–
[1], 318.15 K, x1 = 0.6433	0.366	–
[1], 318.15 K, x1 = 0.8206	0.201	–
[2], 298.15 K, x1 = 0.0182	–	1027.1
[2], 298.15 K, x1 = 0.0376	–	1050.3
[2], 298.15 K, x1 = 0.0567	–	1067.1
[2], 298.15 K, x1 = 0.0995	–	1093.7
[2], 298.15 K, x1 = 0.1608	–	1116.8
[2], 298.15 K, x1 = 0.2208	–	1131.4
[2], 298.15 K, x1 = 0.2975	–	1143.6
[2], 298.15 K, x1 = 0.3909	–	1154
[2], 298.15 K, x1 = 0.4861	–	1161.5
[2], 298.15 K, x1 = 0.5827	–	1167.2
[2], 298.15 K, x1 = 0.6761	–	1171.8
[2], 298.15 K, x1 = 0.8091	–	1176.6
[2], 298.15 K, x1 = 0.8376	–	1177.6
[2], 298.15 K, x1 = 0.8942	–	1179.4
[2], 318.15 K, x1 = 0.0466	–	1046.8
[2], 318.15 K, x1 = 0.1004	–	1080.4
[2], 318.15 K, x1 = 0.1523	–	1099.8
[2], 318.15 K, x1 = 0.1991	–	1112.4
[2], 318.15 K, x1 = 0.251	–	1122.2
[2], 318.15 K, x1 = 0.3038	–	1130.2
[2], 318.15 K, x1 = 0.4108	–	1141.5
[2], 318.15 K, x1 = 0.5062	–	1148.8
[2], 318.15 K, x1 = 0.5822	–	1153.3
[2], 318.15 K, x1 = 0.7042	–	1158.9
[2], 318.15 K, x1 = 0.7551	–	1160.9
[2], 318.15 K, x1 = 0.7904	–	1162.3
[2], 318.15 K, x1 = 0.8123	–	1163.2
[2], 318.15 K, x1 = 0.8988	–	1165.7
[2], 318.15 K, x1 = 0.918	–	1166.3

CCCCO [butan-1-ol]
Conditions	mass density, [4] [kg/m3]	refractive index, [3]
298.15 K	805.95	1.3968
318.15 K	790.27	1.39

CCO [ethanol]
Conditions	mass density, [4] [kg/m3]	refractive index, [3]
298.15 K	785.15	1.36
318.15 K	767.57	1.3548

CO [methanol]
Conditions	mass density, [4] [kg/m3]	refractive index, [3]
298.15 K	786.44	1.3268
318.15 K	768.04	1.319

CCCO [propan-1-ol]
Conditions	mass density, [4] [kg/m3]	refractive index, [3]
298.15 K	799.7	1.3831
318.15 K	783.16	1.3757
